Measured values reported in ChEMBL document CHEMBL5236604, “Cage hydrocarbons as linkers in dimeric drug design: Case studies with trimethoprim and tedizolid” (2023).
≈ marks a conversion by molar mass, not a printed value. Calls of active or inactive are those of the source. No cut-off for these calls is given here.

Columns and labels:
Enterococcus faecium [1] = test: Antibacterial activity against trimethoprim sensitive Enterococcus faecium assessed as inhibition of bacterial growth; format: functional
Enterococcus faecium [2] = test: Antibacterial activity against trimethoprim resistant Enterococcus faecium assessed as inhibition of bacterial growth; format: functional
Acinetobacter baumannii [3] = test: Antibacterial activity against trimethoprim sensitive Acinetobacter baumannii assessed as inhibition of bacterial growth; format: functional
Staphylococcus aureus [4] = test: Antibacterial activity against trimethoprim sensitive Staphylococcus aureus assessed as inhibition of bacterial growth; format: functional
Staphylococcus aureus [5] = test: Antibacterial activity against trimethoprim resistant Staphylococcus aureus assessed as inhibition of bacterial growth; format: functional
Acinetobacter baumannii [6] = test: Antibacterial activity against trimethoprim resistant Acinetobacter baumannii assessed as inhibition of bacterial growth; format: functional
Enterococcus faecium [7] = test: Antibacterial activity against Enterococcus faecium; format: functional, organism-based
Staphylococcus aureus [8] = test: Antibacterial activity against Staphylococcus aureus; format: functional, organism-based

Row | Compound | MIC (Enterococcus faecium [1]) [µM] | MIC (Enterococcus faecium [2]) [µM] | MIC (Acinetobacter baumannii [3]) [µM] | MIC (Staphylococcus aureus [4]) [µM] | MIC (Staphylococcus aureus [5]) [µM] | MIC (Acinetobacter baumannii [6]) [µM] | Activity (Enterococcus faecium [7]) | Activity (Staphylococcus aureus [8])
1 | COc1cc(Cc2cnc(N)nc2N)cc(OC)c1O [4-HYDROXYTRIMETHOPRIM] | 3.12 (≈ 0.863 µg/mL) | 60 (≈ 16.6 µg/mL) | > 100 | 12.5 (≈ 3.45 µg/mL) | > 25 |  |  | 
2 | COc1cc(Cc2cnc(N)nc2N)cc(OC)c1OC(=O)C12CC(C(=O)Oc3c(OC)cc(Cc4cnc(N)nc4N)cc3OC)(C1)C2 | 1.56 (≈ 1.05 µg/mL) | > 50 | > 100 | 25 (≈ 16.8 µg/mL) | > 100 |  |  | 
3 | COc1cc(Cc2cnc(N)nc2N)cc(OC)c1OC(=O)C12CCC(C(=O)Oc3c(OC)cc(Cc4cnc(N)nc4N)cc3OC)(CC1)CC2 | 3.12 (≈ 2.23 µg/mL) | > 100 | > 100 | > 100 |  |  |  | 
4 | COc1cc(Cc2cnc(N)nc2N)cc(OC)c1OC [TRIMETHOPRIM] | 0.78 (≈ 0.226 µg/mL) | 100 (≈ 29 µg/mL) | 6.25 (≈ 1.81 µg/mL) | 6.25 (≈ 1.81 µg/mL) | 12.5 (≈ 3.63 µg/mL) | > 400 |  | 
5 | CC(C)(C)[Si](C)(C)OC[C@H]1CN(c2ccc(O)c(F)c2)C(=O)O1 |  |  |  |  |  |  | inactive | inactive
6 | COc1cc(Cc2cnc(N)nc2N)cc(OC)c1OC(=O)C12CC3CC(C1)CC(C(=O)Oc1c(OC)cc(Cc4cnc(N)nc4N)cc1OC)(C3)C2 | 6.25 (≈ 4.63 µg/mL) | 50 (≈ 37 µg/mL) | > 100 | 12.5 (≈ 9.26 µg/mL) | > 25 |  |  | 
